From BigSolDB 2.1

NC(=O)c1nc(F)cnc1O
solubility (mole fraction)
Settings	293.15 K	298.15 K	303.15 K	308.15 K	313.15 K	318.15 K	323.15 K	328.15 K	333.15 K
in DMF	0.0109	0.0116	0.0128	0.0133	0.0156	0.0183	0.0212	0.0234	0.026
in acetone	0.00417	0.00458	0.00492	0.00523	0.00585	0.00638	0.00699	0.00772	0.00859
in acetonitrile	0.00183	0.00188	0.00193	0.00207	0.00226	0.00242	0.00268	0.00285	0.00293
in dichloromethane	0.00231	0.00271	0.00277	0.00284	0.00328	0.00359	0.00398	0.00462	0.00514
in ethanol	0.00206	0.00238	0.00252	0.00279	0.00318	0.00339	0.00366	0.00395	0.00458
in ethyl acetate	0.0036	0.00396	0.00442	0.00449	0.00497	0.00525	0.00572	0.00599	0.00662
in isopropanol	0.00185	0.00196	0.00209	0.00236	0.00268	0.00284	0.00315	0.00318	0.00326
in methanol	0.00147	0.00152	0.00156	0.00163	0.00169	0.00176	0.00182	0.00195	0.00199
in methyl acetate	0.00397	0.00408	0.00464	0.00499	0.00521	0.00564	0.00597	0.00624	0.00778
in n-butanol	0.00263	0.00296	0.00318	0.00346	0.00385	0.00409	0.00463	0.00499	0.00537
in n-butyl acetate	0.00502	0.00513	0.00582	0.00641	0.00681	0.00741	0.00839	0.00894	0.00986
in n-propanol	0.00188	0.00197	0.00225	0.00258	0.00276	0.00299	0.00316	0.00349	0.00395
